Experimental data taken from article PMC9081605, “A High-Throughput Toxicity Screen of 42 Per- and Polyfluoroalkyl Substances (PFAS) and Functional Assessment of Migration and Gene Expression in Human Placental Trophoblast Cells” (Frontiers in Toxicology, 2022).
“Also recorded” adds a separate entry of the source.

What was measured:
Type in all cases: cell-based, human
JEG-3 cells [1] = assay: CellTiter-Glo luminescent cell viability assay (HTTS); conditions: for Viability ↓, lowest concentration at which the mean response value exceeded the mean control value ± 2*SD (rough binning) / Viability ↑, lowest concentration at which the mean response value exceeded the mean control value ± 2*SD (rough binning): 24 h; for Viability ↓, lowest concentration at which the mean response value exceeded the mean control value ± 2*SD (rough binning): decrease; for cell viability relative to vehicle control (rough binning): after 24 h, in at least one concentration; for Viability ↑, lowest concentration at which the mean response value exceeded the mean control value ± 2*SD (rough binning): increase
Description: (§1) JEG-3 human choriocarcinoma trophoblastic cells (American Type Culture Collection, VA, United States) were maintained in sterile-filtered Minimum Essential Media (MEM) supplemented with L-glutamine and phenol red (Thermo Fisher Scientific, MA, United States), 10% (v/v) heat-inactivated BenchMark Fetal Bovine Serum (Gemini Bio, CA, United States), 1% (v/v) sodium pyruvate (Thermo Fisher Scientific, MA, United States), and 1% (v/v) penicillin streptomycin (Sigma Aldrich, MO, United States). Cells were maintained in an incubator at 37°C with 5% CO2. JEG-3 cells were cultured in 10 cm tissue culture plates and cell passage numbers were recorded.
(§2) A total of 42 perfluoroalkyl substances (PFAS) were evaluated (Supplementary Table S1 contains source and purity). PFAS stock solutions were maintained in 100% methanol as previous work has shown certain PFAS degrade when stored in dimethyl sulfoxide (DMSO; [Gaballah et al., 2020]). […] The vehicle control group consisted of 97.5% media + 2.5% methanol to match the concentration of methanol in the media at the highest PFAS concentration tested (500 µM). Menadione (50–500 µM) was used as a positive control for cytotoxicity assessment. PFAS were de-identified and assigned random numbers to eliminate bias. Chemical exposure plate maps were designed so that all experimental conditions were tested in at least technical duplicates per plate. The outer edges of each plate received media alone and were excluded from all analyses to avoid edge effects. Each plate map included 14 technical replicates of the vehicle control group and 14 technical replicates of media only. Biological replicates were defined as separate 384 well plates tested on separate days using different cell passages. The experimental workflow is depicted in Supplementary Figure S1.
(§3) JEG-3 cells were counted using a Z2 Coulter Particle Counter (Beckman Coulter, CA, United States) and seeded at a density of 2,500 cells per well in black-walled, clear bottom 384 well plates (Corning, #3764) and allowed to adhere overnight. Approximately 24 h later, 384 well plates were imaged using an IncuCyte Zoom live cell imager (Essen BioScience Inc., MI, United States) to obtain baseline cellular confluence measurements prior to chemical dosing (0 h). Media was removed from wells and replaced with fresh media containing chemical treatments (exposure media) using a Viaflo liquid handling device (Integra Biosciences, NH, United States). Within 30 min of exposure media application, plates were again imaged for cellular confluence using the IncuCyte Zoom. Plates were incubated with exposure media for 24 h and then imaged again using the IncuCyte Zoom (24 h).
In the same plate evaluated for mitochondrial membrane potential, cell viability measures were duplexed using the CellTiter-Glo (CTG) Luminescent Cell Viability Assay (Promega, WI, United States). CTG reagent was added to each well at a volume of 20 µl. The plate was left at room temperature to incubate for 5 min and then 20 µl from each well was transferred to a low-volume, round-bottom, white 384 well plate (Corning, NY, United States). The CTG reagent lyses cellular and mitochondrial membranes and binds to adenosine triphosphate (ATP) released by cells, which produces a luminescence signal. The intensity of the luminescence was considered a proxy measure for the number of live cells in a well. The luminescence intensities were measured using the CLARIOstar plate reader.
HTTS data were analyzed using a custom data analysis script in R v 1.2.5019 ([R Core Team, 2019]). Briefly, raw data points corresponding to the confluence measurements at 0 and 24 h, the fluorescence intensities corresponding to MMP, and the relative luminescence units (RLU) corresponding to cell viability were imported directly from Microsoft Excel into the R programming environment, RStudio. Separate plates run on separate days using different JEG-3 passages were considered as biologic replicates. […]

JEG-3 cells [2] = assay: Proliferation, change in confluence 0-24 h (IncuCyte Zoom, HTTS); conditions: for minimal effective concentration: read-out: Prolif ↓, lowest concentration at which the mean response value exceeded the mean control value ± 2*SD (rough binning); for EC50: four-parameter fit, estimates meeting inclusion criteria; for cellular proliferation relative to vehicle control (rough binning): after 24 h, in at least one concentration
Description: as §1, §2, §3
Plate well bottom images were evaluated using automated cell masking. The automated cell masking program was developed using IncuCyte Zoom base software. Cell masking parameters were defined using a training set of JEG-3 cell images obtained prior to conducting the experiments and following IncuCyte Zoom software recommendations. Briefly, the training images were obtained from cell culture plates with varying levels of JEG-3 cellular confluence (ranging from ∼15% confluent to ∼95% confluent). Parameters for the automated cell masking were first manually set by an experimenter for 3-6 images of low (∼15–30%), medium (∼30–70%), and high confluence (∼70% or greater). The training images were then evaluated by the automated masking program and manually checked to ensure the parameters were sufficiently strict to ignore background (e.g., blank space on the plate well bottom) but adequately sensitive to detect cell borders. The masking program was then implemented on the experimental plates to obtain a baseline cellular confluence measurement at 0 h and a second confluence measurement at 24 h. […]

JEG-3 cells [3] = assay: Mitochondrial membrane potential, JC-10 assay (HTTS); conditions: for minimal effective concentration: read-out: MMP ↓, lowest concentration at which the mean response value exceeded the mean control value ± 2*SD (rough binning); for MMP relative to vehicle control (rough binning): after 24 h, in at least one concentration; for MMP ↓, lowest concentration at which the mean response value exceeded the mean control value ± 2*SD (rough binning): 24 h, decrease
Description: as §1, §2, §3
The JC-10 assay (Enzo Life Sciences, NY, United States) was used to evaluate mitochondrial membrane potential, the main bioenergetic parameter that regulates respiratory rate, ATP synthesis and reactive oxygen species generation. In cells with polarized mitochondrial membranes, the JC-10 dye localizes to the mitochondrial matrix and forms red fluorescent aggregates (540/590 nm). In cells with depolarized mitochondrial membranes, the JC-10 dye localizes in the cytoplasm and converts to a green fluorescent monomer (490/525 nm). Mitochondrial membrane potential was calculated as the ratio of the green and red fluorescence intensities within a well.
At the end of the 24 h exposure period, exposure media was removed from the plate. The plate wells were then washed with 1x phosphate buffered saline (1x PBS). After washing, the JC-10 reagent was suspended in fresh 1x PBS and 20 µl was added to each well at a final concentration of 20 μM (Enzo Life Sciences, NY, United States). The plate was incubated for 1 h at 37°C, and the fluorescence intensities at excitation/emission wavelengths of 490/525 nm and 540/590 nm were measured using a CLARIOstar (BMG Labtech, Offenburg, Germany) plate reader, respectively.
HTTS data were analyzed using a custom data analysis script in R v 1.2.5019 ([R Core Team, 2019]). […]

[4] = Homo sapiens, JEG-3, 24 h, read-out: Viability EC50 ± SD, JEG-3 cells, 24 h exposure, four-parameter fit, estimates meeting inclusion criteria
[5] = Homo sapiens, JEG-3, 24 h, read-out: Proliferation EC50 ± SD, JEG-3 cells, 24 h exposure
[6] = Homo sapiens, JEG-3, 24 h, read-out: MMP EC50 ± SD, JEG-3 cells, 24 h exposure, four-parameter fit, estimates meeting inclusion criteria
[7] = read-out: MMP EC50 ± SD, JEG-3 cells, 24 h exposure, four-parameter fit, estimates meeting inclusion criteria
[8] = JEG-3 cells, 24 h exposure, four-parameter fit, estimates meeting inclusion criteria, read-out: Viability EC50 ± SD
[9] = JEG-3 cells, 24 h exposure, read-out: Proliferation EC50 ± SD
[10] = JEG-3 cells, raw model output including fits that did not meet inclusion criteria, read-out: MMP EC50 ± SD (raw values)

Row | SMILES | EC50 (JEG-3 cells [1]; [4]) | Viability ↓, lowest concentration at which the mean response value exceeded the mean control value ± 2*SD (rough binning) (JEG-3 cells [1]; JEG-3 cells) | cell viability relative to vehicle control (rough binning) (JEG-3 cells [1]) | minimal effective concentration (JEG-3 cells [2]; Homo sapiens, JEG-3, 24 h) | EC50 (JEG-3 cells [2]; [5]) | cellular proliferation relative to vehicle control (rough binning) (JEG-3 cells [2]) | minimal effective concentration (JEG-3 cells [3]; Homo sapiens, JEG-3, 24 h) | MMP relative to vehicle control (rough binning) (JEG-3 cells [3]) | EC50 (JEG-3 cells [3]; [6]) | Viability ↑, lowest concentration at which the mean response value exceeded the mean control value ± 2*SD (rough binning) (JEG-3 cells [1]; JEG-3 cells) | EC50 (JEG-3 cells [3]; [7]) | EC50 (JEG-3 cells [1]; [8]) | EC50 (JEG-3 cells [2]; [9]) | MMP ↓, lowest concentration at which the mean response value exceeded the mean control value ± 2*SD (rough binning) (JEG-3 cells [3]; JEG-3 cells) | EC50 (JEG-3 cells [3]; [10]) | EC50 (JEG-3 cells [1]; Homo sapiens, JEG-3, 24 h, read-out: viability EC50 ± SE, JEG-3 cells, 24 h) | EC50 (JEG-3 cells [1]; JEG-3 cells, raw model output including fits that did not meet inclusion criteria, read-out: Viability EC50 ± SD (raw values)) | Prolif ↓, lowest concentration at which the mean response value exceeded the mean control value ± 2*SD (rough binning) (JEG-3 cells [2]; JEG-3 cells, 24 h, decrease) | Prolif ↑, lowest concentration at which the mean response value exceeded the mean control value ± 2*SD (rough binning) (JEG-3 cells [2]; JEG-3 cells, 24 h, increase) | EC50 (JEG-3 cells [3]; Homo sapiens, JEG-3, 24 h, read-out: MMP EC50 ± SE, JEG-3 cells, 24 h)
1 | O=C(O)C(F)(F)OC(F)(F)C(F)(F)OC(F)(F)C(F)(F)OC(F)(F)C(F)(F)C(F)(F)C(F)(F)F [Perfluoro-3,6,9-trioxatridecanoic acid] | 195 ± 54.6 µM | 300 µM | reduced cell viability | 400 µM | 332 ± 34.1 µM | reduced cellular proliferation | 50 µM | reduced MMP |  |  |  |  |  |  |  |  |  |  |  | 
2 | O=C(O)C(F)(F)OC(F)(F)C(F)(F)OC(F)(F)C(F)(F)C(F)(F)C(F)(F)F [Perfluoro-3,6-dioxadecanoic acid] |  | 400 µM | reduced cell viability | 300 µM | 283 ± 25.7 µM | reduced cellular proliferation | 400 µM | reduced MMP | 350 ± 16.1 µM |  |  |  |  |  |  |  |  |  |  | 
3 | O=C(O)C(F)(F)OC(F)(F)C(F)(F)OC(F)(F)F [Perfluoro-3,6-dioxaheptanoic acid] | 326 ± 85.7 µM |  | increased cell viability | 400 µM | 351 ± 11.8 µM | reduced cellular proliferation | 400 µM | reduced MMP | 368 µM | 200 µM | 368 ± 22.6 µM |  |  |  |  |  |  |  |  | 
4 | O=C(O)C(F)(F)C(F)(F)OC(F)(F)F [Perfluoro-3-methoxypropanoic acid] | 304 ± 28.2 µM |  |  |  | 204 ± 111 µM |  |  |  | 93.1 ± 132 µM |  |  |  |  |  |  |  |  |  |  | 
5 | O=S(=O)(O)C(F)(F)C(F)(F)C(F)(F)C(F)(F)F [Perfluorobutanesulfonic acid] |  |  | increased cell viability |  |  |  |  | reduced MMP |  | 50 µM |  | 330 ± 35 µM | 223 ± 76.7 µM | 50 µM |  |  |  |  |  | 
6 | O=C(O)C(F)(F)C(F)(F)C(F)(F)F [Perfluorobutanoic acid] |  |  | increased cell viability |  |  |  |  | reduced MMP |  | 50 µM |  | 226 ± 116 µM | 209 ± 360 µM | 50 µM | 52 µM |  |  |  |  | 
7 | O=C(O)C(F)(F)C(F)(F)C(F)(F)C(F)(F)C(F)(F)C(F)(F)C(F)(F)C(F)(F)C(F)(F)F [Perfluorodecanoic acid] | 181 ± 25.6 µM | 200 µM | reduced cell viability; also recorded: increased cell viability | 250 µM | 234 ± 22.8 µM | reduced cellular proliferation | 50 µM | reduced MMP | 236 ± 160 µM | 50 µM |  |  |  |  |  | 181 ± 26 µM |  |  |  | 
8 | O=S(=O)(O)C(F)(F)C(F)(F)C(F)(F)C(F)(F)C(F)(F)C(F)(F)C(F)(F)F [Perfluoroheptanesulfonic acid] |  |  |  |  |  |  |  |  |  |  |  |  | 296 ± 201 µM |  | 874 ± 1750 µM |  | 1980 ± 2480 µM | 232.5 µM | 23.25 µM | 
9 | O=S(=O)(O)C(F)(F)C(F)(F)C(F)(F)C(F)(F)C(F)(F)C(F)(F)F [Perfluorohexanesulfonic acid] | 289 ± 29.6 µM |  | increased cell viability | 350 µM | 252 ± 21.7 µM | reduced cellular proliferation |  |  | 86.2 µM | 50 µM | 86.6 ± 71.5 µM |  |  |  |  |  |  |  |  | 86.2 ± 72.3 µM
